IC50 and EC50 data for 24 compounds are collected here from patent publication US20260226073A1 (AURIGENE ONCOLOGY LIMITED, priority 2023, published 2026).

Some results are limits rather than exact numbers.

In experiment [1] the target is T1, human recombinant CBL-b (human Biotin CBL-b recombinant protein a.a. 39-426) (Homo sapiens, UniProt Q13191).
T1 construct: human Biotin CBL-b recombinant protein a.a; 39-426; Biotin (biotinylated); made in house
As to the kind of experiment: Biochemical assay for CBL-b inhibition (ligand displacement TR-FRET). The experiment is classed as binding. Conditions: 50 nM CBL-b, 0.3 μM Bodipy FL-Probe, read-out: IC50 (CBL-b inhibition, group). The method, boiled down:
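Ligand-displacement TR-FRET: 0.3 μM Bodipy FL probe competes with compound for 50 nM biotin-CBL-b (aa 39-426) after a 60 min RT compound pre-incubation; terbium-streptavidin detection, 60 min each step. Dose-response sigmoidal fitting gave IC50 and % maximum inhibition.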

The subject of experiment [2] is NFAT signaling pathway in Jurkat NFAT reporter cells. Nature of the experiment: Jurkat NFAT reporter assay. The experiment is classed as cell-based. The conditions noted are these: Homo sapiens, 30 min with compound, then soluble anti-human CD3/CD28 antibody for 6 hours, luciferase readout, read-out: EC50 (Group). Summed up:
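Results are expressed as fold change relative to stimulated, inhibitor-free cells. Stimulation was 6 h with soluble anti-human CD3/CD28 antibody after a 30-min exposure of 1×10^5 NFAT-RE luciferase Jurkat reporter cells per well to the Cbl-b inhibitor; signal read by Bio-Glo bioluminescence.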

T1 sequence (Q13191 39-426): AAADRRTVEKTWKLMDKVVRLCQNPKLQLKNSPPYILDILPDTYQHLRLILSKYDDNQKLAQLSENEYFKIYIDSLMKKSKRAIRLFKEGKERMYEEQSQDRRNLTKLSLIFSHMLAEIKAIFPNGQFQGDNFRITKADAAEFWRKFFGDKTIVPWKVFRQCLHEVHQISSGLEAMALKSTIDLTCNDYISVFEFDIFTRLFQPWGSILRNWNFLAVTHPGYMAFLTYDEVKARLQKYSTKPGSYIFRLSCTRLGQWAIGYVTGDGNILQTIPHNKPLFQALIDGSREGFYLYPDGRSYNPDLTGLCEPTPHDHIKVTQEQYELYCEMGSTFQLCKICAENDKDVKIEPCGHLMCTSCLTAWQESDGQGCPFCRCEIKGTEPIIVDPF

With `C[C@H]1CCCN(Cc2cc(N3Cc4ccc(C5(Cc6nncn6C)COC5)cc4C3=O)cc3occc23)C1` [Compound 94, (S)-6-(3-((4-Methyl-4H-1,2,4-triazol-3-yl)methyl)oxetan-3-yl)-2-(4-((3-methyl-piperidin-1-yl)methyl)benzofuran-6-yl)isoindolin-1-one], in experiment [1], the IC50 (usually the concentration that inhibits the measured activity by half) was under 80 nM. Besides, the EC50 (as a rule, the concentration at which the effect is half-maximal) in experiment [2] lay in the range of 300 to 1000 nM.

As for `Cc1cc(CNCC2CC2)cc(N2Cc3ccc(-c4ccc(Cl)cc4-c4nncn4C)cc3C2=O)n1` [Compound 101, 6-(4-Chloro-2-(4-methyl-4H-1,2,4-triazol-3-yl)phenyl)-2-(4-(((cyclopropylmethyl)amino)methyl)-6-methylpyridin-2-yl)isoindolin-1-one], the IC50 in experiment [1] was under 80 nM. Further, the EC50 in experiment [2] was under 300 nM.

Consider `Cn1cnnc1-c1cc(Cl)ccc1-c1ccc2c(c1)C(=O)N(c1cc(CNCC3CC3)cc(Cl)n1)C2` [Compound 102, 6-(4-Chloro-2-(4-methyl-4H-1,2,4-triazol-3-yl)phenyl)-2-(6-chloro-4-(((cyclopropylmethyl)amino)methyl)pyridin-2-yl)isoindolin-1-one], for which the IC50 in experiment [1] is under 80 nM. The EC50 in experiment [2] is under 300 nM.

As to `Cc1cc(C(C)NCC2CC2)cc(N2Cc3ccc(-c4ccc(Cl)cc4-c4nncn4C)cc3C2=O)n1` (stereo not drawn) [Compound 103, 6-(4-Chloro-2-(4-methyl-4H-1,2,4-triazol-3-yl)phenyl)-2-(4-(1-((cyclopropylmethyl)amino)ethyl)-6-methylpyridin-2-yl)isoindolin-1-one], the IC50 in experiment [1] was under 80 nM. In addition, the EC50 in experiment [2] is under 300 nM.

For `Cn1cnnc1-c1cc(Cl)ccc1-c1ccc2c(c1)C(=O)N(c1cc(CNC3CCCC3)cc(Cl)n1)C2` [Compound 106, 6-(4-Chloro-2-(4-methyl-4H-1,2,4-triazol-3-yl)phenyl)-2-(6-chloro-4-((cyclo-pentylamino)methyl)pyridin-2-yl)isoindolin-1-one], in experiment [1], the IC50 fell in the range of 80 to 300 nM. In addition, the EC50 in experiment [2] fell in the range of 300 to 1000 nM.

Turning to `CC(NCC1CCC1)c1cc(Cl)nc(N2Cc3ccc(-c4ccc(Cl)cc4-c4nncn4C)cc3C2=O)c1` (stereo not drawn) [Compound 107, 6-(4-Chloro-2-(4-methyl-4H-1,2,4-triazol-3-yl)phenyl)-2-(6-chloro-4-(1-((cyclo-butylmethyl)amino)ethyl)pyridin-2-yl)isoindolin-1-one], in experiment [1], the IC50 is under 80 nM. Moreover, in experiment [2], the EC50 is under 300 nM.

Regarding `C[C@H]1CCCN(Cc2cc(Cl)nc(N3Cc4ccc(-c5ccc(C#N)cc5-c5nncn5C)cc4C3=O)c2)C1` [Compound 112, (S)-4-(2-(6-Chloro-4-((3-methylpiperidin-1-yl)methyl)pyridin-2-yl)-3-oxoiso-indolin-5-yl)-3-(4-methyl-4H-1,2,4-triazol-3-yl)benzonitrile], the IC50 in experiment [1] was under 80 nM. The EC50 in experiment [2] is under 300 nM.

For the compound `C[C@H]1CCCN(Cc2cc(Cl)nc(N3Cc4ccc(-c5ccc(Cl)cc5-c5nncn5C)cc4C3=O)c2)C1` [Compound 113, (S)-6-(4-Chloro-2-(4-methyl-4H-1,2,4-triazol-3-yl)phenyl)-2-(6-chloro-4-((3-methylpiperidin-1-yl)methyl)pyridin-2-yl)isoindolin-1-one], the IC50 in experiment [1] was under 80 nM. Besides, the EC50 in experiment [2] is under 300 nM.

For `Cn1cnnc1-c1ccccc1-c1ccc2c(c1)C(=O)N(c1cc(CNCCC(F)(F)F)cc(Cl)n1)C2` [Compound 116, 2-(6-Chloro-4-(((3,3,3-trifluoropropyl)amino)methyl)pyridin-2-yl)-6-(2-(4-methyl-4H-1,2,4-triazol-3-yl)phenyl)isoindolin-1-one], the IC50 in experiment [1] was under 80 nM. Besides, the EC50 in experiment [2] lay in the range of 1000 to 10000 nM.

`C[C@@H]1C[C@H](C)CN(Cc2cc(N3Cc4ccc(-c5ccccc5-c5nncn5C)cc4C3=O)nc(C(F)(F)F)c2)C1` [Compound 117, 2-(4-(((3S,5R)-3,5-Dimethylpiperidin-1-yl)methyl)-6-(trifluoromethyl)pyridin-2-yl)-6-(2-(4-methyl-4H-1,2,4-triazol-3-yl)phenyl)isoindolin-1-one]: the IC50 in experiment [1] is 80 to 300 nM. In experiment [2], the EC50 was in the range of 1000 to 10000 nM.

For the compound `Cn1cnnc1-c1cc(Cl)ccc1-c1ccc2c(c1)C(=O)N(c1cc(Cl)cc(CNCC3CC3)c1)C2` [Compound 119, 6-(4-Chloro-2-(4-methyl-4H-1,2,4-triazol-3-yl)phenyl)-2-(3-chloro-5-(((cyclo-propylmethyl)amino)methyl)phenyl)isoindolin-1-one], the IC50 in experiment [1] was under 80 nM. Also, in experiment [2], the EC50 is 300 to 1000 nM.

With `CC(NCC1CC(F)(F)C1)c1cc(Cl)nc(N2Cc3ccc(-c4ccc(Cl)cc4-c4nncn4C)cc3C2=O)c1` (stereo not drawn) [Compound 121, 6-(4-Chloro-2-(4-methyl-4H-1,2,4-triazol-3-yl)phenyl)-2-(6-chloro-4-(1-(((3,3-difluorocyclobutyl)methyl)amino)ethyl)pyridin-2-yl)isoindolin-1-one], the IC50 in experiment [1] is under 80 nM. In experiment [2], the EC50 was under 300 nM.

With `Cc1cc(CNC(C)C2CC2)cc(N2Cc3ccc(-c4ccc(Cl)cc4-c4nncn4C)cc3C2=O)n1` (stereo not drawn) [Compound 122, 6-(4-Chloro-2-(4-methyl-4H-1,2,4-triazol-3-yl)phenyl)-2-(4-(((1-cyclopropyl-ethyl)amino)methyl)-6-methylpyridin-2-yl)isoindolin-1-one], the IC50 in experiment [1] was under 80 nM. Also, the EC50 in experiment [2] is under 300 nM.

Consider `Cc1cc(CNCC2CC2)cc(N2Cc3ccc(-c4ccc(F)cc4-c4nncn4C)cc3C2=O)n1` [Compound 127, 2-(4-(((Cyclopropylmethyl)amino)methyl)-6-methylpyridin-2-yl)-6-(4-fluoro-2-(4-methyl-4H-1,2,4-triazol-3-yl)phenyl)isoindolin-1-one], for which the IC50 in experiment [1] was under 80 nM. For the same compound, the EC50 in experiment [2] was under 300 nM.

Regarding `CC(NCc1cc(Cl)nc(N2Cc3ccc(C4(Cc5nncn5C)COC4)cc3C2=O)c1)C1CC1` (stereo not drawn) [Compound 131, 2-(6-Chloro-4-(((1-cyclopropylethyl)amino)methyl)pyridin-2-yl)-6-(3-((4-methyl-4H-1,2,4-triazol-3-yl)methyl)oxetan-3-yl)isoindolin-1-one], the IC50 in experiment [1] is under 80 nM. Besides, the 50% effective concentration (EC50) in experiment [2] is under 300 nM.

For the compound `Cn1cnnc1-c1cc(Cl)ccc1-c1ccc2c(c1)C(=O)N(c1cc(CNCC3CC3)cc(C(F)(F)F)n1)C2` [Compound 132, 6-(4-Chloro-2-(4-methyl-4H-1,2,4-triazol-3-yl)phenyl)-2-(4-(((cyclopropylmethyl)amino)methyl)-6-(trifluoromethyl)pyridin-2-yl)isoindolin-1-one], the half-maximal inhibitory concentration (IC50) in experiment [1] was under 80 nM. Also, in experiment [2], the EC50 was under 300 nM.

As to `Cc1nc(CNCC2CC2)cc(N2Cc3ccc(-c4ccc(F)cc4-c4nncn4C)cc3C2=O)n1` [Compound 133, 2-(6-(((Cyclopropylmethyl)amino)methyl)-2-methylpyrimidin-4-yl)-6-(4-fluoro-2-(4-methyl-4H-1,2,4-triazol-3-yl)phenyl)isoindolin-1-one], the IC50 in experiment [1] is under 80 nM. For the same compound, the EC50 in experiment [2] lay in the range of 1000 to 10000 nM.

Take `Cc1cc(CNCC2CCC2)cc(N2Cc3ccc(-c4ccc(F)cc4-c4nncn4C)cc3C2=O)n1` [Compound 134, 2-(4-(((Cyclobutylmethyl)amino)methyl)-6-methylpyridin-2-yl)-6-(4-fluoro-2-(4-methyl-4H-1,2,4-triazol-3-yl)phenyl)isoindolin-1-one]: the concentration for half-maximal inhibition (IC50) in experiment [1] was under 80 nM. The EC50 in experiment [2] was under 300 nM.

As for `C[C@@H]1C[C@H](C)CN(Cc2cc(N3Cc4ccc(C5(Cc6nncn6C)CC(C#N)C5)cc4C3=O)nc(C(F)(F)F)c2)C1` (stereo partly drawn) [Compound 143], the IC50 in experiment [1] is under 80 nM. Also, in experiment [2], the EC50 was under 300 nM.

For the compound `Cn1cnnc1CC1(c2ccc3c(c2)C(=O)N(c2cc(CNCC4CCC4)cc(Cl)n2)C3)COC1` [Compound 144, 2-(6-Chloro-4-(((cyclobutylmethyl)amino)methyl)pyridin-2-yl)-6-(3-((4-methyl-4H-1,2,4-triazol-3-yl)methyl)oxetan-3-yl)isoindolin-1-one], in experiment [1], the half-maximal inhibitory concentration (IC50) is under 80 nM. The EC50 in experiment [2] is under 300 nM.

As to `Cn1cnnc1CC1(c2ccc3c(c2)C(=O)N(c2cc(CNCC4CC4)cc(Cl)n2)C3)CCC1` [Compound 145, 2-(6-Chloro-4-(((cyclopropylmethyl)amino)methyl)pyridin-2-yl)-6-(1-((4-methyl-4H-1,2,4-triazol-3-yl)methyl)cyclobutyl)isoindolin-1-one], the IC50 in experiment [1] was under 80 nM. Also, the EC50 in experiment [2] was under 300 nM.

On to `Cc1cc(CNCC2CC2)cc(N2Cc3ccc(C4(Cc5nncn5C)COC4)cc3C2=O)n1` [Compound 147, 2-(4-(((Cyclopropylmethyl)amino)methyl)-6-methylpyridin-2-yl)-6-(3-((4-methyl-4H-1,2,4-triazol-3-yl)methyl)oxetan-3-yl)isoindolin-1-one], for which the IC50 in experiment [1] is under 80 nM. In addition, the EC50 in experiment [2] lay in the range of 300 to 1000 nM.

As for `CCC1CCCN(Cc2cc(Cl)nc(N3Cc4ccc(C5(Cc6nncn6C)COC5)cc4C3=O)c2)C1` (stereo not drawn) [Compound 148, 2-(6-Chloro-4-((3-ethylpiperidin-1-yl)methyl)pyridin-2-yl)-6-(3-((4-methyl-4H-1,2,4-triazol-3-yl)methyl)oxetan-3-yl)isoindolin-1-one], the IC50 in experiment [1] was under 80 nM. Also, the EC50 in experiment [2] is under 300 nM.

Consider `Cn1cnnc1CC1(c2ccc3c(c2)C(=O)N(c2cc(CNCCC(F)(F)F)cc(Cl)n2)C3)CCC1` [Compound 151, 2-(6-Chloro-4-(((3,3,3-trifluoropropyl)amino)methyl)pyridin-2-yl)-6-(1-((4-methyl-4H-1,2,4-triazol-3-yl)methyl)cyclobutyl)isoindolin-1-one], for which, in experiment [1], the IC50 is under 80 nM. Further, in experiment [2], the EC50 was under 300 nM.
